Results on seven molecules are retold here after patent US7541032B2, “Antigen uptake receptor for Candida albicans on dendritic cells” (priority 2002, dated 2009).

Assay [1] has as its target T1, DC-SIGN (Homo sapiens, UniProt Q9NNX6).
T1 construct: expressed in transfected cells
T1 sequence (Q9NNX6 1-404): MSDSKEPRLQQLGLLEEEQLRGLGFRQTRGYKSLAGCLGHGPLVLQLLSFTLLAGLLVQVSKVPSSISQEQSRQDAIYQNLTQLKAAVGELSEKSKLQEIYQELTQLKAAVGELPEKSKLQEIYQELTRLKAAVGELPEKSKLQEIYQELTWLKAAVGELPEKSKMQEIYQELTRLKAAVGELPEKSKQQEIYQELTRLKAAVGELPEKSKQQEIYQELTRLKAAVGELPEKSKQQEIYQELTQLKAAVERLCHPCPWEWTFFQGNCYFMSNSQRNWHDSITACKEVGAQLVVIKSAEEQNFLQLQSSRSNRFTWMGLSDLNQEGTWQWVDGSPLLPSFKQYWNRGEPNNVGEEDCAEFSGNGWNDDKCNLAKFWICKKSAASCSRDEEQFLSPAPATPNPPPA
Description: Binding of conidiae and hyphae of other Candida strains/species and Aspergillus fumigatus to K-SIGN cells. Format: cell-based. Here is the method:
(§1) DC or K562 transfected cells were stained with anti-CD45-APC prior to exposure to FITC labeled live or heat inactivated Candida. DC or K562 cells expressing DC-SIGN or ALCAM (control) were or were not preincubated for 10 minutes at room temperature with mannan (300 μg/mL), mannose (100 mM), facose (100 mM), EGTA (5 mM), or a mixture of AZN-D1 and AZN-D3 (20 μg/mL), in 20 mM Tris pH 8.0, containing 150 mM NaCl, 1 mM CaCl2, 2 mM MgCl2, and 1% BSA (TSA buffer) or, when EGTA was used, in PBS. Subsequently, FITC labeled Candida were resuspended to the appropriate concentrations either in TSA or PBS and added in various cell/C. albicans ratios. After incubation, cell-Candida conjugates were analyzed by flow cytometry, and the relative difference in mean fluorescence intensity of the double labeled events compared with that of control cells was calculated. Cells were labeled with anti-CD45APC to discriminate cells binding FITC-labeled yeast particles from yeast aggregates.
Further studies were performed as above but using other strains or species of yeast and also comparing binding of the conidiae versus binding of the hyphal form of the organism. […] These are clinical strains isolated from patients. It is seen that the conidiae or single-celled form of the yeast bind to DC-SIGN better than do the hyphae. […]

The target of assay [2] is T1, DC-SIGN. Briefly: Binding of FITC-labeled C. albicans to K562 transfectants expressing DC-SIGN (K-SIGN), flow cytometry. It is filed as cell-based. As to conditions: for Inhibition of binding of C. albicans to K562 cells transfected with wild-type DC-SIGN (FIG. 1F): K562 wild-type DC-SIGN transfectants. How it is done:
(§2) Immature dendritic cells (imDC) were generated from human peripheral blood monocytes as described previously (Vissers et al., 2001). Briefly, monocytes were isolated by adherence to plastic and cultured in the presence of IL-4 (500 U/mL) and GM-CSF (800 U/mL) for 6-7 days. K562 transfectants either expressing DC-SIGN or ALCAM were generated by transfection of K562 cells with 10 μg of plasmid by electroporation as described previously (Geijtenbeek et al., 2000b; Nelissen et al., 2000). Positive cells were sorted several times to obtain stable transfectants with similar expression levels of DC-SIGN.
(§3) Labeling of Candida cells was performed as follows: viable or heat killed (60 minutes at 56° C. or 30 minutes at 100° C.) yeast cells were resuspended to 2×10^8/mL in 0.1 mg/mL FITC in 0.05 M carbonate-bicarbonate buffer (pH 9.5). After incubation for 15 minutes at room temperature in the dark, FITC-labeled Candida cells were washed twice in PBS containing 1% BSA (PBA buffer) and analyzed by flow cytometry.
as §1
The erythroleukemic cell line K562 transfectants stably expressing DC-SIGN (K-SIGN) (Geijtenbeek et al., 2000a) were used to investigate the potential of C. albicans to bind DC-SIGN in the absence of any other known C. albicans, receptors. Binding to ICAM-3 fluorescent beads was used as a positive control for DC-SIGN function. […] The monoclonal antibodies AZN-D1 and AZN-L50 were used to detect DC-SIGN and ALCAM, respectively. The K562 transfectants stably express DC-SIGN and ALCAM, (FIGS. 1A-1 through 1A-3) with expression levels similar to that observed previously (Geijtenbeek et al., 2000a; Nelissen et al., 2000).
Transfectant cells were labeled with CD45APC to discriminate cells binding FITC labeled yeast from yeast aggregates. […]
For orientation: Flow cytometry measures light scatter and fluorescence of single cells or particles in a stream.

The subject of assay [3] is immature dendritic cells (imDC). Description: Binding of C. albicans to immature monocyte-derived dendritic cells in the presence of blocking agents, flow cytometry. The note with it: for Inhibition of binding of Candida to imDC at ratios 1:2, 1:5 and 1:10 (FIG. 3D): imDC:C. albicans 1:2, 1:5, 1:10; for Inhibition of imDC/Candida binding (FIG. 5): panel of possible inhibitors, buffer TSA as control. It is filed as cell-based, human. Here is the method:
as §2, §3, §1
In an attempt to establish the contribution of both the mannose receptor and DC-SIGN, immature DC were incubated with specific inhibitors before interacting with C. albicans. Immature monocyte derived dendritic cells (50×10^3), which were CD45APC labeled, were incubated with heat-inactivated Candida (500×10^3) in the absence or presence of AZN-D1 and AZN-D3, anti-DC-SIGN mAb (20 μg/mL each), mannose (100 mM), and EGTA (5 mM).

A further assay relates to immature DC. Briefly: Phagocytosis of FITC-labeled Candida by immature DC, confocal microscopy. Format: cell-based, human. The note with it: 60 minutes at 37° C. Here is the method:
Immature DC (5×10^5) were incubated with unopsonized live FITC-labeled Candida cells (2.5×10^6) in a total volume of 500 μL at 37° C. in a water bath with orbital shaking at 150 rpm for various periods of time. At the end of the incubation period, the DC binding Candida are separated from unbound Candida by a Ficoll gradient.
The samples were then adhered on poly-L-lysine coated glass coverslips, fixed in 1% paraformaldehyde in PBS for 15 minutes at room temperature, and permeabilized in cold methanol for 5 minutes on ice. After a blocking step in PBS/3% BSA for 60 minutes at room temperature, cells were labeled with mAb (10 μg/mL in PBS/3% BSA) for 60 minutes at room temperature and subsequently incubated with Cy5-conjugated Goat-anti-Mouse F(ab′)2 fragments for 30 minutes at room temperature. Finally, the anti-bleach reagent Mowiol was added, and samples were analyzed using a MRC1024 confocal microscope (Bio-Rad).
It was recently shown that DC-SIGN is an antigen uptake receptor, facilitating phagocytosis within minutes (Engering et al., 2002). In order to determine whether DC-SIGN contributes also to the internalization of C. albicans by immature DC, experiments were performed allowing DC to interact with FITC-labeled Candida for 60 minutes at 37° C. to allow phagocytosis. […]

For assay [4], the target named is T2, Activated Leukocyte Cell Adhesion Molecule ALCAM (UniProt Q13740 28-583, limits assumed).
T2 construct: whole, on cells; also called K-ALCAM (K562 cells transfected with ALCAM)
T2 sequence (looked up): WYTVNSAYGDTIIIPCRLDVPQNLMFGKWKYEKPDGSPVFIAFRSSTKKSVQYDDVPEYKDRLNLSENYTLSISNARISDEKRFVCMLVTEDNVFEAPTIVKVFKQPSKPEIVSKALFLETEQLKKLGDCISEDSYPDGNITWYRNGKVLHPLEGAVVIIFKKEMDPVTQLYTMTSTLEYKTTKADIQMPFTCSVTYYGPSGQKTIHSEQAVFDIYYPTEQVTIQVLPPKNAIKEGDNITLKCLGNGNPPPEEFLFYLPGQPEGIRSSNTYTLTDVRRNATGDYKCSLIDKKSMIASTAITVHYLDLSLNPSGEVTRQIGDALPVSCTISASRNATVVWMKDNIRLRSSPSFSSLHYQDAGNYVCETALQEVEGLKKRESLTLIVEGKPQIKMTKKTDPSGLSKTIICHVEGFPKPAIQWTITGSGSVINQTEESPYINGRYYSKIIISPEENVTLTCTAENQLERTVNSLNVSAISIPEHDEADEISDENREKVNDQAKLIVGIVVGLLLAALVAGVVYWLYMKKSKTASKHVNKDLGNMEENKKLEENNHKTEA
Description: fluorescent beads adhesion assay, flow cytometry, K562 transfectants.
Description: In inhibition studies, the bead adhesion assay was performed in the presence of 0.3 mg/mL mannan, 5 mM EGTA, or 20 μg/mL antibodies against DC-SIGN or ALCAM.
The erythroleukemic cell line K562 transfectants stably expressing DC-SIGN (K-SIGN) (Geijtenbeek et al., 2000a) were used to investigate the potential of *C. albicans* to bind DC-SIGN in the absence of any other known *C. albicans*, receptors.

Turning to `O=C(O)CN(CCN(CC(=O)O)CC(=O)O)CC(=O)O` [EDTA], at DC-SIGN [1] (conidiae and hyphae, all cases except possibly C. tropicalis and C. parapsilosis (very low binding)), the “Inhibition of binding of various Candida species and Aspergillus fumigatus to K-SIGN cells (FIGS. 8A-F)” value was “inhibited”.
For the molecule `O=C(O)CN(CCOCCOCCN(CC(=O)O)CC(=O)O)CC(=O)O` [EGTA], the “Inhibition of binding of C. albicans by K-SIGN (FIG. 1C)” value on DC-SIGN [2] (AZN-D1 20 μg/mL, EGTA 5 mM) is reported as “abrogates binding”. Further, on DC-SIGN [2], the “Inhibition of binding of C. albicans to K562 cells transfected with wild-type DC-SIGN (FIG. 1F)” value is recorded as “prevented the binding”. Also, at DC-SIGN [2] (K-SIGN, live and heat-inactivated yeast), the “Inhibition of binding of live and heat-killed (56° C. or 100° C.) yeast forms of C. albicans by DC-SIGN (FIG. 2)” value is on record as “inhibited”. Moreover, the “Inhibition of binding of conidiae and hyphae to K-SIGN cells (FIG. 6)” value at DC-SIGN [1] (C. albicans strains V13-12, V15-31, V18-17, C. dubliniensis strains V18-13, 4247, 3588) was “inhibited”. For the same molecule, the “Blocking of binding of C. albicans to immature DC, in words (FIG. 3B)” value in assay [3] (EGTA 5 mM, heat-inactivated Candida) was “most effective blocking agent”. Moreover, in assay [3], the “Inhibition of binding of Candida to imDC at ratios 1:2, 1:5 and 1:10 (FIG. 3D)” value is reported as “largely eliminated binding”; the “Inhibition of imDC/Candida binding (FIG. 5)” value is recorded as “inhibited binding to a large degree”. Also, the “Blocking of phagocytosis of Candida by immature DC” value with immature DC is recorded as “almost completely blocked phagocytosis”.
As to `C[C@H](O)[C@@H](O)[C@@H](O)[C@H](O)C=O` [fucose, L-fucose], on DC-SIGN [2], the “Inhibition of binding of C. albicans to K562 cells transfected with wild-type DC-SIGN (FIG. 1F)” value is on record as “some inhibition”. In assay [3], the “Inhibition of binding of Candida to imDC at ratios 1:2, 1:5 and 1:10 (FIG. 3D)” value was “greater inhibitory effects”; the “Inhibition of imDC/Candida binding (FIG. 5)” value is recorded as “inhibited binding to a large degree”.
On to Mannan, for which, in assay [3], the “Inhibition of binding of Candida to imDC at ratios 1:2, 1:5 and 1:10 (FIG. 3D)” value is “did not block the binding”; the “Inhibition of imDC/Candida binding (FIG. 5)” value is recorded as “only minor effects”.
For laminarin, in assay [3], the “Blocking of C. albicans binding on immature monocyte derived DC (β2-integrin / Dectin-1 interference)” value was “did not show any block” and the “Inhibition of imDC/Candida binding (FIG. 5)” value is “only minor effects”.
As to β-1,2-oligomannoside, in assay [3], the “Inhibition of imDC/Candida binding (FIG. 5)” value is reported as “greatly inhibited binding”.

B1: ICAM-3-Fc (Fc fusion, UniProt P32942 30-485, looked up)
chain: QEFLLRVEPQNPVLSAGGSLFVNCSTDCPSSEKIALETSLSKELVASGMGWAAFNLSNVTGNSRILCSVYCNGSQITGSSNITVYRLPERVELAPLPPWQPVGQNFTLRCQVEDGSPRTSLTVVLLRWEEELSRQPAVEEPAEVTATVLASRDDHGAPFSCRTELDMQPQGLGLFVNTSAPRQLRTFVLPVTPPRLVAPRFLEVETSWPVDCTLDGLFPASEAQVYLALGDQMLNATVMNHGDTLTATATATARADQEGAREIVCNVTLGGERREARENLTVFSFLGPIVNLSEPTAHEGSTVTVSCMAGARVQVTLDGVPAAAPGQPAQLQLNATESDDGRSFFCSATLEVDGEFLHRNSSVQLRVLYGPKIDRATCPQHLKWKDKTRHVLQCQARGNPYPELRCLKEGSSREVPVGIPFFVNVTHNGTYQCQASSSRGKYTLVVVMDIEAGSSH
notes: Coated on carboxylate-modified TransFluorSpheres; also called ICAM-3-Fc coated beads; ICAM-3 fluorescent beads; not shown: Fc part
For the molecule B1, the binding result in assay [4] is “no binding”.
